From publication PMC5587642, “A Novel Benzocoumarin-Stilbene Hybrid as a DNA ligase I inhibitor with in vitro and in vivo anti-tumor activity in breast cancer models” (Scientific Reports, 2017)

Key:
MDA-MB-231 cells = test: MTT cell viability assay; assay type: cell-based, human; settings: for IC50: MTT, 48 h
Description: (§1) Cell viability assay was performed as described previously. Briefly, cells were seeded in 96 well plates and treated with different concentrations of compound 19 for 48 h. After drug treatment, MTT reagent was added in each well of the plate and cell viability was quantified by measuring the absorbance at 590 nm.

[1] = test system: MCF-10A (Normal breast epithelial cells); test: MTT cell viability assay; assay type: cell-based, human
Description: as §1

hLigI = biological target: T1, hLigI (Homo sapiens, UniProt P18858); test: Circular dichroism study; assay type: binding; settings: 5 and 10 µM
T1 construct: made in house
Description: We followed previously described protocol for CD studies[40] with small modifications. Briefly, emission spectra of hLigI (100 pmol) was recorded at a wavelength of 190-250 nm in the presence (5 and 10 µM) or absence of compound 19 by spectropolarimeter. The raw values in mdeg were obtained and used for mean residual ellipticity [θ] calculation. The graph was generated by the plotting the value of mean residue ellipticity in deg cm^2 dmol^−1 with respect to wavelength.

hLigI and DNA complex = biological target: T2, hLigI and DNA complex (Homo sapiens, UniProt P18858); test: Electrophoretic mobility shift assay (EMSA); assay type: binding; settings: 120, 250, 500 µM
T2 construct: made in house
Description: EMSA was performed as described previously. Briefly, in 20 μl reaction volume 2 pmol non-ligatable nicked DNA substrate was incubated with DMSO (vehicle control) or with different concentrations (120, 250, 500 µM) of compound 19 incubated with 10 pmol of hligI in ligation buffer. After the incubation, samples were separated by 6.5% native PAGE and bands were detected and imaged by Image Quant LAS 4010 (GE Life sciences).

T1 sequence (P18858 whole entry): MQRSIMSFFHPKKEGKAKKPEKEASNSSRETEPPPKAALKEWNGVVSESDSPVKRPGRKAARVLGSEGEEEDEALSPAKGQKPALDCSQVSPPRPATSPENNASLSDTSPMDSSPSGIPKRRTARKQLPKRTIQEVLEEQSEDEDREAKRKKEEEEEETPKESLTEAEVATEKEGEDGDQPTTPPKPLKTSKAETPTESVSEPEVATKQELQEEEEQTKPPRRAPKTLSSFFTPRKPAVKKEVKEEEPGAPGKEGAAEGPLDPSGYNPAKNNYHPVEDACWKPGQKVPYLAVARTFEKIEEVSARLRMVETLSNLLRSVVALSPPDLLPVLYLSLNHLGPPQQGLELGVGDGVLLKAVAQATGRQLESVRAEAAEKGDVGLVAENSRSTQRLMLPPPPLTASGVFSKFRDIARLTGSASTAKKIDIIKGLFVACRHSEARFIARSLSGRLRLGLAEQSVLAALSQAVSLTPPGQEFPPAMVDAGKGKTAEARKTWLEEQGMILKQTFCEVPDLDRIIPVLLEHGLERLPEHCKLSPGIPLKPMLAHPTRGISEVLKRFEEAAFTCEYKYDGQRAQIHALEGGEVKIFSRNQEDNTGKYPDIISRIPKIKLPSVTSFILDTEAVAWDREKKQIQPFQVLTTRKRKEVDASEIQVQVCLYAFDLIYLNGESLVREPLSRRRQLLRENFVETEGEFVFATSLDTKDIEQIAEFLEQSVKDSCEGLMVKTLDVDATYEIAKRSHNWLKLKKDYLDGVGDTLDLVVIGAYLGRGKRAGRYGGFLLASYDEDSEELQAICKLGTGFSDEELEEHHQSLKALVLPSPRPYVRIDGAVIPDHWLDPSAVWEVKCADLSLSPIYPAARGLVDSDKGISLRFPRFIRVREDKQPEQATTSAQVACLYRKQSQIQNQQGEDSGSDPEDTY
T2 sequence (P18858 whole entry, one chain of several): as the sequence (P18858 whole entry) above

For `COc1cc(/C=C/c2cc(=O)oc3c2ccc2ccccc23)cc(OC)c1` [Compound 19, (E)-4-(3,5-dimethoxystyryl)-2H-benzo[h]chromen-2-one], which “% Inhibition of cell viability at 10 µM, MDA-MB-231 (Breast)” value (MDA-MB-231 cells; 10 µM) is on record?
Its value is 51.35%.

And the inhibition at 10 µM (MDA-MB-231 cells; Homo sapiens, MDA-MB-231, 48 h, 10 μM, % inhibition, read-out: Antiproliferative activity at 10μM in MDA-MB-231)?
The inhibition at 10 µM was over 50%.

And the IC50 (MDA-MB-231 cells; Homo sapiens, MDA-MB-231, 48 h)?
Its IC50 is 12.5 ± 2.8 µM.

What about the “Comparative cell viability versus parent compounds” value (MDA-MB-231 cells; MDA-MB-231, versus Neo-tanshinlactone and resveratrol) of the same compound?
Its value is “more active as compared to parent compounds”.

And the IC50 (MDA-MB-231 cells)?
The IC50 was 12 µM.

And the “% Inhibition of cell viability at 10 µM, MCF-10A (Normal breast epithelial cells)” value [1]?
Its value is 50.83%.

What about the “Conformational change of hLigI (CD)” value (hLigI) of the same compound?
Its value is “promoted conformational changes in protein”.

What about the “hLigI and DNA complex formation (EMSA)” value (hLigI and DNA complex) of the same compound?
The value was “decreased the hLigI and DNA complex formation”.
